Some results are limits rather than exact numbers.

For experiment [1], the system named is HUT cancer cell line. Kind of experiment: Cell inhibition assay (SRB cell viability), HUT. In kind it is cell-based. To be noted: HUT cells, 72 h, IC50 range. The gist of the method:
(§1)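 Log-phase Hela, U937 and HUT cells were seeded at 1000 cells/well, grown 24 h, then exposed to compound (20 uM final) for 72 h. Viability was read by sulphorhodamine B staining and expressed as % inhibition relative to DMSO control. IC50 values came from sigmoidal variable-slope fits of eight concentrations.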

In experiment [2] the test system is Hela cancer cell line. Kind of experiment: Cell inhibition assay (SRB cell viability), Hela. In kind it is cell-based. Conditions: Homo sapiens, HeLa, 72 h, Hela cells, IC50 range. The gist of the method: as §1
The target in experiment [3] is T1, histone deacetylase activity (HeLa nuclear extract).
T1 construct: Histone deacetylase activity from crude nuclear extract derived from HeLa cells was used for screening
Briefly: HDAC fluorescent activity assay (Biomol Fluor de Lys), HeLa nuclear extract. The class given is biochemical. To be noted: Fluor de Lys substrate, IC50 range. The gist of the method:
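Crude HeLa nuclear extract (20 mM Hepes, 100 mM KCl, 0.2 mM EDTA, 0.5 mM DTT, 0.2 mM PMSF, 20% glycerol) incubated with acetyl-lysine Fluor de Lys substrate ± inhibitor; developer generates fluorophore. Background-subtracted % of vehicle control; IC50 from eight-point variable-slope sigmoidal fit.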

Experiment [4] relates to U937 cancer cell line. Briefly: Cell inhibition assay (SRB cell viability), U937. The class given is cell-based. To be noted: Homo sapiens, U-937, U937 cells, 72 h, IC50 range. Put shortly:
as §1

`CC(C)(C)OC[C@H](NCc1ccc(NC(=O)CCCCCCC(=O)NO)cc1)C(=O)OC1CCCC1` [Compound 89, (S)-3-tert-Butoxy-2-[4-(7-hydroxycarbamoyl-heptanoylamino)-benzylamino]-propionic acid cyclopentyl ester]: the half-maximal inhibitory concentration (IC50) (commonly the concentration at which inhibition is half-maximal) is 330 to 3300 nM in experiment [1], over 3300 nM in experiment [2], 101 to 1000 nM in experiment [3] and under 330 nM in experiment [4].
Consider `O=C(CCCCCCC(=O)Nc1ccc(CN[C@@H](Cc2ccccc2)C(=O)OC2CCCC2)cc1)NO` [Compound 91, (S)-2-[4-(7-Hydroxycarbamoyl-heptanoylamino)-benzylamino]-3-phenyl-propionic acid cyclopentyl ester], for which the 50% inhibitory concentration (IC50) is 330 to 3300 nM in experiment [1], over 3300 nM in experiment [2], 101 to 1000 nM in experiment [3] and 330 to 3300 nM in experiment [4].
As to `O=C(CCCCCCC(=O)Nc1cccc(OCCCC(=O)N[C@H](C(=O)OC2CCCC2)c2ccccc2)c1)NO` [Compound 92, (S)-{4-[3-(7-Hydroxycarbamoyl-heptanoylamino)-phenoxy]-butyrylamino}-phenyl-acetic acid cyclopentyl ester], the half-maximal inhibitory concentration (IC50) is 330 to 3300 nM in experiment [1], 330 to 3300 nM in experiment [2], under 100 nM in experiment [3] and 330 to 3300 nM in experiment [4].
On to `CC(C)C[C@H](NC(=O)[C@@H]1Cc2ccc(NC(=O)CCCCCCC(=O)NO)cc2CN1)C(=O)OC1CCCC1` [Compound 96, (S)-2-{[(S)-7-(7-Hydroxycarbamoyl-heptanoylamino)-1,2,3,4-tetrahydro-isoquinoline-3-carbonyl]-amino}-4-methyl-pentanoic acid cyclopentyl ester], for which the concentration for half-maximal inhibition (IC50) in experiment [1] was 330 to 3300 nM; in experiment [2] it was over 3300 nM; in experiment [3], 101 to 1000 nM; in experiment [4], 330 to 3300 nM.
For `CC(C)C[C@H](NC(=O)c1ccc(NC(=O)CCCCCCC(=O)NO)cc1)C(=O)OC1CCCC1` [Compound 98, (S)-2-[4-(7-Hydroxycarbamoyl-heptanoylamino)-benzoylamino]-4-methyl-pentanoic acid cyclopentyl ester], the IC50 in experiment [1] lay within 330 to 3300 nM; in experiment [2], 330 to 3300 nM; in experiment [3], 101 to 1000 nM; in experiment [4], 330 to 3300 nM.
In the case of `O=C(CCCCCCNC(=O)c1cc2cc(CCC(=O)N[C@@H](Cc3ccccc3)C(=O)OC3CCCC3)ccc2[nH]1)NO` [Compound 100, (S)-2-{3-[2-(6-Hydroxycarbamoyl-hexylcarbamoyl)-1H-indol-5-yl]-propionylamino}-3-phenyl-propionic acid cyclopentyl ester], the half-maximal inhibitory concentration (IC50) in experiment [1] is 330 to 3300 nM; in experiment [2], over 3300 nM; in experiment [3], under 100 nM; in experiment [4], 330 to 3300 nM.
As for `O=C(Cc1ccc(OCCCC(=O)N[C@@H](Cc2ccccc2)C(=O)OC2CCCC2)cc1)Nc1ccc2sc(C(=O)NO)cc2c1` [Compound 102, (S)-2-(4-{4-[(2-Hydroxycarbamoyl-benzo[b]thiophen-5-ylcarbamoyl)-methyl]-phenoxy}-butyrylamino)-3-phenyl-propionic acid cyclopentyl ester], the 50% inhibitory concentration (IC50) in experiment [1] is over 3300 nM; in experiment [2], over 3300 nM; in experiment [3], 101 to 1000 nM; in experiment [4], 330 to 3300 nM.
With `O=C(NO)c1cc2ccc(CNCc3ccc(CN[C@@H](Cc4ccccc4)C(=O)OC4CCCC4)cc3)cc2s1` [Compound 104, (S)-2-(4-{[(2-Hydroxycarbamoyl-benzo[b]thiophen-6-ylmethyl)-amino]-methyl}-benzylamino)-3-phenyl-propionic acid cyclopentyl ester], the concentration for half-maximal inhibition (IC50) in experiment [1] was 330 to 3300 nM; in experiment [2], 330 to 3300 nM; in experiment [3], 101 to 1000 nM; in experiment [4] it was under 330 nM.
As to `O=C(NO)c1cc2ccc(CNCc3ccc(CN[C@@H](Cc4ccc(O)cc4)C(=O)OC4CCCC4)cc3)cc2s1` [Compound 106, (S)-2-(4-{[(2-Hydroxycarbamoyl-benzo[b]thiophen-6-ylmethyl)-amino]-methyl}-benzylamino)-3-(4-hydroxy-phenyl)-propionic acid cyclopentyl ester], the IC50 was under 330 nM in experiment [1], 330 to 3300 nM in experiment [2], under 100 nM in experiment [3] and under 330 nM in experiment [4].
Consider `CC(OC(C)(C)C)[C@H](NCc1ccc(CNCc2ccc3cc(C(=O)NO)sc3c2)cc1)C(=O)OC1CCCC1` (stereo partly drawn) [Compound 108, (S)-3-tert-Butoxy-2-(4-{[(2-hydroxycarbamoyl-benzo[b]thiophen-6-ylmethyl)-amino]-methyl}-benzylamino)-butyric acid cyclopentyl ester], for which the half-maximal inhibitory concentration (IC50) fell in the range of 330 to 3300 nM in experiment [1], 330 to 3300 nM in experiment [2], 101 to 1000 nM in experiment [3] and 330 to 3300 nM in experiment [4].
As for `CC(C)(C)OC[C@H](NCc1ccc(CNCc2ccc3cc(C(=O)NO)sc3c2)cc1)C(=O)OC1CCCC1` [Compound 109, (S)-3-tert-Butoxy-2-(4-{[(2-hydroxycarbarnoyl-benzo[b]thiophen-6-ylmethyl)-amino]-methyl}-benzylamino)-propionic acid cyclopentyl ester], the 50% inhibitory concentration (IC50) in experiment [1] was 330 to 3300 nM; in experiment [2] it was 330 to 3300 nM; in experiment [3], under 100 nM; in experiment [4] it was under 330 nM.
Regarding `CSCC[C@H](NCc1ccc(CNCc2ccc3cc(C(=O)NO)sc3c2)cc1)C(=O)OC1CCCC1` [Compound 110, (S)-2-(4-{[(2-Hydroxycarbamoyl-benzo[b]thiophen-6-ylmethyl)-amino]-methyl}-benzylamino)-4-methylsulfanyl-butyric acid cyclopentyl ester], the IC50 is under 330 nM in experiment [1], 330 to 3300 nM in experiment [2], under 100 nM in experiment [3] and under 330 nM in experiment [4].
With `O=C(NO)c1cc2ccc(CNCc3ccc(CN4CCC[C@H]4C(=O)OC4CCCC4)cc3)cc2s1` [Compound 111, (S)-1-(4-{[(2-Hydroxycarbamoyl-benzo[b]thiophen-6-ylmethyl)-amino]-methyl}-benzyl)-pyrrolidine-2-carboxylic acid cyclopentyl ester], the half-inhibitory concentration (IC50) was under 330 nM in experiment [1], under 330 nM in experiment [2], under 100 nM in experiment [3] and under 330 nM in experiment [4].
`CC(C)(C)SC[C@H](NCc1ccc(CNCc2ccc3cc(C(=O)NO)sc3c2)cc1)C(=O)OC1CCCC1` [Compound 113, (R)-3-tert-Butylsulfanyl-2-(4-{[(2-hydroxycarbamoyl-benzo[b]thiophen-6-ylmethyl)-amino]-methyl}-benzylamino)-propionic acid cyclopentyl ester]: the IC50 is 330 to 3300 nM in experiment [1], 330 to 3300 nM in experiment [2], 101 to 1000 nM in experiment [3] and 330 to 3300 nM in experiment [4].
In the case of `CC(C)(C)[C@H](NCc1ccc(CNCc2ccc3cc(C(=O)NO)sc3c2)cc1)C(=O)OC1CCCC1` [Compound 115, (S)-2-(4-{[(2-Hydroxycarbamoyl-benzo[b]thiophen-6-ylmethyl)-amino]-methyl}-benzylamino)-3,3-dimethyl-butyric acid cyclopentyl ester], the 50% inhibitory concentration (IC50) in experiment [1] is 330 to 3300 nM; in experiment [2], 330 to 3300 nM; in experiment [3], 101 to 1000 nM; in experiment [4] it was 330 to 3300 nM.
Consider `O=C(NO)c1cc2ccc(CNCc3ccc(CN[C@H](C(=O)OC4CCCC4)C4CCCCC4)cc3)cc2s1` [Compound 116, (S)-Cyclohexyl-(4-{[(2-hydroxycarbamoyl-benzo[b]thiophen-6-ylmethyl)-amino]-methyl}-benzylamino)-acetic acid cyclopentyl ester], for which the IC50 was over 3300 nM in experiment [1], over 3300 nM in experiment [2], 101 to 1000 nM in experiment [3] and 330 to 3300 nM in experiment [4].
In the case of `C[C@H](NCc1ccc(CNCc2ccc3cc(C(=O)NO)sc3c2)cc1)C(=O)OC1CCCC1` [Compound 118, (S)-2-(4-{[(2-Hydroxycarbamoyl-benzo[b]thiophen-6-ylmethyl)-amino]-methyl}-benzylamino)-propionic acid cyclopentyl ester], the 50% inhibitory concentration (IC50) is under 330 nM in experiment [1], under 330 nM in experiment [2], under 100 nM in experiment [3] and under 330 nM in experiment [4].
With `CC(C)C[C@H](NCc1ccc(CNCc2ccc3cc(C(=O)NO)sc3c2)cc1)C(=O)OC1CCCC1` [Compound 122], the concentration for half-maximal inhibition (IC50) was 330 to 3300 nM in experiment [1], 330 to 3300 nM in experiment [2], under 100 nM in experiment [3] and under 330 nM in experiment [4].
With `O=C(NO)c1cc2ccc(CNCc3ccc(CN[C@H](C(=O)OC4CCCC4)c4ccccc4)cc3)cc2s1` [Compound 124, (S)-(4-{[(2-Hydroxycarbamoyl-benzo[b]thiophen-6-ylmethyl)-amino]-methyl}-benzylamino)-phenyl-acetic acid cyclopentyl ester], the IC50 in experiment [1] is 330 to 3300 nM; in experiment [2], 330 to 3300 nM; in experiment [3], 101 to 1000 nM; in experiment [4], under 330 nM.
Turning to `CC(C)C[C@H](NCC1CCC(CNCc2ccc3cc(C(=O)NO)sc3c2)CC1)C(=O)OC1CCCC1` (stereo partly drawn) [Compound 128, (S)-2-[(4-{[(2-Hydroxycarbamoyl-benzo[b]thiophen-6-ylmethyl)-amino]-methyl}-cyclohexylmethyl)-amino]-4-methyl-pentanoic acid cyclopentylester], the concentration for half-maximal inhibition (IC50) in experiment [1] was under 330 nM; in experiment [2] it was 330 to 3300 nM; in experiment [3], 101 to 1000 nM; in experiment [4] it was under 330 nM.

Source of the values: patent US9133104B2 (Chroma Therapeutics Ltd., priority 2005, dated 2015).
